Measured values reported in US11446287B2, “Compounds and methods for EP300 or CBP modulation and indications therefor” (Opna Immuno-Oncology SA, priority 2019, dated 2022).

Each compound was assayed against T1, Recombinant human BRD4 containing dual bromodomains (BRD4-BD12 (1-477)) (Homo sapiens, UniProt O60885) (assay: BRD4 Alphascreen binding assay).
T1 construct: Recombinant human BRD4 containing dual bromodomains (BRD4-BD12 (1-477)); made in house; host or cells: E. coli BL21-CodonPlus (DE3), modified pET vector
Method in brief: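 AlphaScreen proximity between Ni-chelate-bound BRD4-BD12 (1-477) and streptavidin-captured H4 K5/K8/K12/K16-acetyl peptide measured after 1 h room-temperature compound incubation and 30 min with 7.5 μg/ml beads. Buffer: 50 mM HEPES pH 7.5, 50 mM NaCl, 0.01% BSA, 0.01% Triton X-100; data plate-normalized and four-parameter fit for IC50.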

Compound | IC50 [µM]
CCOc1cc(C(=O)O)cc(OCC)c1-n1cc(-c2ccc(F)cc2F)c2ncc(-c3c(C)noc3C)cc21 [P-0186, 4-(3-(2,4-difluorophenyl)-6-(3,5-dimethylisoxazol-4-yl)-1H-pyrrolo[3,2-b]pyridin-1-yl)-3,5-diethoxybenzoic acid] | 8 to 1000
CCOc1cc(C(=O)O)cc(OCC)c1-n1cc(Cc2ccccn2)c2ncc(-c3c(C)noc3C)cc21 [P-0187, 4-(6-(3,5-dimethylisoxazol-4-yl)-3-(pyridin-2-ylmethyl)-1H-pyrrolo[3,2-b]pyridin-1-yl)-3,5-diethoxybenzoic acid] | 8 to 1000
Cc1noc(C)c1-c1cnc2c(c1)c(-c1ccc(C(=O)O)cc1OC(F)(F)F)cn2-c1ccccc1 [P-0188, 4-(5-(3,5-dimethylisoxazol-4-yl)-1-phenyl-1H-pyrrolo[2,3-b]pyridin-3-yl)-3-(trifluoromethoxy)benzoic acid] | 1 to 8
Cc1ccncc1-n1cc(-c2ccc(C(=O)O)cc2OC(F)(F)F)c2cc(-c3c(C)noc3C)cnc21 [P-0189, 4-(5-(3,5-dimethylisoxazol-4-yl)-1-(4-methylpyridin-3-yl)-1H-pyrrolo[2,3-b]pyridin-3-yl)-3-(trifluoromethoxy)benzoic acid] | 8 to 1000
CCOc1cc(C(=O)O)cc(OCC)c1-n1cc(CC2CCC2)c2ncc(-c3c(C)nnn3C)cc21 [P-0190, 4-(3-(cyclobutylmethyl)-6-(1,4-dimethyl-1H-1,2,3-triazol-5-yl)-1H-pyrrolo[3,2-b]pyridin-1-yl)-3,5-diethoxybenzoic acid] | 1 to 8
Cc1noc(C)c1-c1cnc2c(c1)c(-c1ccc(C(=O)O)cc1OC(F)(F)F)cn2CCN1CCOCC1 [P-0191, 4-(5-(3,5-dimethylisoxazol-4-yl)-1-(2-morpholinoethyl)-1H-pyrrolo[2,3-b]pyridin-3-yl)-3-(trifluoromethoxy)benzoic acid] | 8 to 1000
CCOc1cc(C(=O)O)cc(OCC)c1-n1cc(-c2ccc(C3CC3)nc2)c2ncc(-c3c(C)noc3C)cc21 [P-0192, 4-(3-(6-cyclopropylpyridin-3-yl)-6-(3,5-dimethylisoxazol-4-yl)-1H-pyrrolo[3,2-b]pyridin-1-yl)-3,5-diethoxybenzoic acid] | 1 to 8
CCOc1cc(C(=O)O)cc(OCC)c1-n1cc(-c2cncc(Cl)c2)c2ncc(-c3c(C)noc3C)cc21 [P-0193, 4-(3-(5-chloropyridin-3-yl)-6-(3,5-dimethylisoxazol-4-yl)-1H-pyrrolo[3,2-b]pyridin-1-yl)-3,5-diethoxybenzoic acid] | 1 to 8
CCOc1cc(C(=O)O)cc(OCC)c1-n1cc(-c2ccc(OC)cc2F)c2ncc(-c3c(C)noc3C)cc21 [P-0194, 4-(6-(3,5-dimethylisoxazol-4-yl)-3-(2-fluoro-4-methoxyphenyl)-1H-pyrrolo[3,2-b]pyridin-1-yl)-3,5-diethoxybenzoic acid] | 1 to 8
CCOc1cc(C(=O)O)cc(OCC)c1-n1cc(-c2cnn(C)c2)c2ncc(-c3c(C)noc3C)cc21 [P-0195, 4-(6-(3,5-dimethylisoxazol-4-yl)-3-(1-methyl-1H-pyrazol-4-yl)-1H-pyrrolo[3,2-b]pyridin-1-yl)-3,5-diethoxybenzoic acid] | 1 to 8
Cc1noc(C)c1-c1cnc2c(-c3ccccc3)cn(-c3ccc(C(=O)O)cc3OC(F)(F)F)c2c1 [P-0196, 4-(6-(3,5-dimethylisoxazol-4-yl)-3-phenyl-1H-pyrrolo[3,2-b]pyridin-1-yl)-3-(trifluoromethoxy)benzoic acid] | 1 to 8
Cc1noc(C)c1-c1cnc2c(c1)c(-c1c(Cl)cc(C(=O)O)cc1Cl)cn2[C@@H](C)c1ccccn1 [P-0197, (S)-3,5-dichloro-4-(5-(3,5-dimethylisoxazol-4-yl)-1-(1-(pyridin-2-yl)ethyl)-1H-pyrrolo[2,3-b]pyridin-3-yl)benzoic acid] | 8 to 1000
Cc1noc(C)c1-c1cnc2c(c1)c(-c1c(Cl)cc(C(=O)O)cc1OC(F)(F)F)cn2C(C1CC1)C1CC1 [P-0198, 3-chloro-4-(1-(dicyclopropylmethyl)-5-(3,5-dimethylisoxazol-4-yl)-1H-pyrrolo[2,3-b]pyridin-3-yl)-5-(trifluoromethoxy)benzoic acid] | 8 to 1000
Cc1noc(C)c1-c1cnc2c(c1)c(-c1ccc(C(=O)O)cc1OC(F)(F)F)cn2C(CC#N)C1CC1 (centres unmarked) [P-0199, 4-(1-(2-cyano-1-cyclopropylethyl)-5-(3,5-dimethylisoxazol-4-yl)-1H-pyrrolo[2,3-b]pyridin-3-yl)-3-(trifluoromethoxy)benzoic acid] | 8 to 1000
Cc1noc(C)c1-c1cnc2c(c1)c(-c1ccc(C(=O)O)cc1OC(F)(F)F)cn2C(CC#N)C1CCCC1 (centres unmarked) [P-0200, 4-(1-(2-cyano-1-cyclopentylethyl)-5-(3,5-dimethylisoxazol-4-yl)-1H-pyrrolo[2,3-b]pyridin-3-yl)-3-(trifluoromethoxy)benzoic acid] | 8 to 1000
CCOc1cc(C(=O)O)cc(OCC)c1-n1cc(-c2cnc(OC)nc2)c2ncc(-c3c(C)noc3C)cc21 [P-0201, 4-(6-(3,5-dimethylisoxazol-4-yl)-3-(2-methoxypyrimidin-5-yl)-1H-pyrrolo[3,2-b]pyridin-1-yl)-3,5-diethoxybenzoic acid] | 1 to 8
Cc1noc(C)c1-c1cnc2c(c1)c(-c1ccc(C(=O)O)cc1OC(F)(F)F)cn2S(=O)(=O)C1CC1 [P-0202, 4-(1-(cyclopropylsulfonyl)-5-(3,5-dimethylisoxazol-4-yl)-1H-pyrrolo[2,3-b]pyridin-3-yl)-3-(trifluoromethoxy)benzoic acid] | 1 to 8
Cc1noc(C)c1-c1cnc2c(c1)c(-c1ccc(C(=O)O)cc1OC(F)(F)F)cn2-c1ccnc(C(C)C)c1 [P-0203, 4-(5-(3,5-dimethylisoxazol-4-yl)-1-(2-isopropylpyridin-4-yl)-1H-pyrrolo[2,3-b]pyridin-3-yl)-3-(trifluoromethoxy)benzoic acid] | 1 to 8
Cc1noc(C)c1-c1cnc2c(c1)c(-c1ccc(C(=O)O)cc1OC(F)(F)F)cn2-c1cnccc1C#N [P-0204, 4-(1-(4-cyanopyridin-3-yl)-5-(3,5-dimethylisoxazol-4-yl)-1H-pyrrolo[2,3-b]pyridin-3-yl)-3-(trifluoromethoxy)benzoic acid] | 8 to 1000
CCOc1cc(C(=O)O)cc(F)c1-n1cc(-c2ccccc2)c2ncc(-c3c(C)noc3C)cc21 [P-0205, 4-(6-(3,5-dimethylisoxazol-4-yl)-3-phenyl-1H-pyrrolo[3,2-b]pyridin-1-yl)-3-ethoxy-5-fluorobenzoic acid] | 1 to 8
CCOc1cccc(C#N)c1-n1cc(-c2ccccc2)c2ncc(-c3c(C)noc3C)cc21 [P-0206, 2-(6-(3,5-dimethylisoxazol-4-yl)-3-phenyl-1H-pyrrolo[3,2-b]pyridin-1-yl)-3-ethoxybenzonitrile] | 8 to 1000
Cc1noc(C)c1-c1cnc2c(-c3ccccc3)cn(-c3c(Cl)cccc3C#N)c2c1 [P-0207, 3-chloro-2-(6-(3,5-dimethylisoxazol-4-yl)-3-phenyl-1H-pyrrolo[3,2-b]pyridin-1-yl)benzonitrile] | 1 to 8
CCOc1cc(C(=O)O)cc(OCC)c1-n1cc(C2=CCC(F)(F)CC2)c2ncc(-c3c(C)noc3C)cc21 [P-0208, 4-(3-(4,4-difluorocyclohex-1-en-1-yl)-6-(3,5-dimethylisoxazol-4-yl)-1H-pyrrolo[3,2-b]pyridin-1-yl)-3,5-diethoxybenzoic acid] | 1 to 8
